Measurements taken from patent US9636418B2 (priority 2013, dated 2017).
Where two headings read alike, the source gives them in different places.

Experiments:
hNav1.7 = hNav1.7 (Homo sapiens, UniProt Q15858); assay: cell-based; assay type: cell-based
hNav1.4 = hNav1.4 (Homo sapiens, UniProt P35499); assay: cell-based; conditions: PatchXpress, tonic block; read-out: PX hNav1.4 Tonic IC50
[1] = PatchXpress, tonic block, read-out: PX hNav1.7 Tonic IC50

Sequence of hNav1.7 (Q15858 whole entry): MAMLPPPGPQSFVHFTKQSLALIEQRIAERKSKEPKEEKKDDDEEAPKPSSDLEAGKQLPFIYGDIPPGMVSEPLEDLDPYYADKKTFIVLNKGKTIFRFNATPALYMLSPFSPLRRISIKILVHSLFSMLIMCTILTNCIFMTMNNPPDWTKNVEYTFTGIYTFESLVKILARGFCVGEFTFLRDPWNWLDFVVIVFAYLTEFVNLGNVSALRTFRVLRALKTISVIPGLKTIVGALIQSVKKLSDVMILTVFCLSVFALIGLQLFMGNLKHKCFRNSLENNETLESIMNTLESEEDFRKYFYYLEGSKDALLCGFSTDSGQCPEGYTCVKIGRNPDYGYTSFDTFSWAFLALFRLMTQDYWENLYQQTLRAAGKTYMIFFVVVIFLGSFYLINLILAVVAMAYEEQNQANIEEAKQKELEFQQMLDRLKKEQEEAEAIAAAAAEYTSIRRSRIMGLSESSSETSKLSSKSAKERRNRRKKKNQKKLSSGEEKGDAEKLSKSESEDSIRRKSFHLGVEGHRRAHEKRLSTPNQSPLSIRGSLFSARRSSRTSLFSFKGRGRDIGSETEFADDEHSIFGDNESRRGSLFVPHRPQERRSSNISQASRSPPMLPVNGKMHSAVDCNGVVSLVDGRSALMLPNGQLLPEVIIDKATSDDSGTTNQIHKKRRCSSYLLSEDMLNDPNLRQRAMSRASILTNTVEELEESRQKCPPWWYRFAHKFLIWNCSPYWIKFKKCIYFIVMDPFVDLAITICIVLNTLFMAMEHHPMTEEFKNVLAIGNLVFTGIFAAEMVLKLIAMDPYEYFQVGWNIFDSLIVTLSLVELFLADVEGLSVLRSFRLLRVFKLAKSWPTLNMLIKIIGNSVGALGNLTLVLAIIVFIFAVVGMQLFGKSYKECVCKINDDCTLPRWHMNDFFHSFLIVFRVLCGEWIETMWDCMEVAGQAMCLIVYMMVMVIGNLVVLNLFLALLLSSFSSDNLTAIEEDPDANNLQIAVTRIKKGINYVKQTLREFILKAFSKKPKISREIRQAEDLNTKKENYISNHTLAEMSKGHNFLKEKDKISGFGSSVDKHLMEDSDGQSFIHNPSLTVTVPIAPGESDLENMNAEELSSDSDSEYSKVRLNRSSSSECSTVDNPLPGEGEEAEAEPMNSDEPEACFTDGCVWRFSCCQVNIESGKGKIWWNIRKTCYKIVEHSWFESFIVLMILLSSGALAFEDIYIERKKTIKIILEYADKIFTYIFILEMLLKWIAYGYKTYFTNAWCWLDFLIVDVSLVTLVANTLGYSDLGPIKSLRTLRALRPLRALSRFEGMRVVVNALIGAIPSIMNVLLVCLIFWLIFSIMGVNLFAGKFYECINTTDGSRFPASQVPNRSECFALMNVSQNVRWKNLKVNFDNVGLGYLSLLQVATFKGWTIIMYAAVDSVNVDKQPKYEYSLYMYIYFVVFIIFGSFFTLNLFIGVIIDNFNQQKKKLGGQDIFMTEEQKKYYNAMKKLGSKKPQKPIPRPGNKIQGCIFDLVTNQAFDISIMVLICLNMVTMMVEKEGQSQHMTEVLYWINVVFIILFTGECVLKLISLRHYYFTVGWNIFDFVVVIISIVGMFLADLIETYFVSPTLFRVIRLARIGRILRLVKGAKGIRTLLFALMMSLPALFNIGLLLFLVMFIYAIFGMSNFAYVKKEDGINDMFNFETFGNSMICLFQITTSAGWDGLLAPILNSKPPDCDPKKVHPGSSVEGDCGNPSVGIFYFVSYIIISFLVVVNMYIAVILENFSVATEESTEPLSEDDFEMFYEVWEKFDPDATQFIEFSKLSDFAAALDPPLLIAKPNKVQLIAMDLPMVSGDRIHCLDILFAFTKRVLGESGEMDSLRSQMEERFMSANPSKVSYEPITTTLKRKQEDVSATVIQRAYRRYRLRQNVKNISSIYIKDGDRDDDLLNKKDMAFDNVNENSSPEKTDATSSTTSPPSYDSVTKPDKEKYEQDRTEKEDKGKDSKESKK
Sequence of hNav1.4 (P35499 whole entry): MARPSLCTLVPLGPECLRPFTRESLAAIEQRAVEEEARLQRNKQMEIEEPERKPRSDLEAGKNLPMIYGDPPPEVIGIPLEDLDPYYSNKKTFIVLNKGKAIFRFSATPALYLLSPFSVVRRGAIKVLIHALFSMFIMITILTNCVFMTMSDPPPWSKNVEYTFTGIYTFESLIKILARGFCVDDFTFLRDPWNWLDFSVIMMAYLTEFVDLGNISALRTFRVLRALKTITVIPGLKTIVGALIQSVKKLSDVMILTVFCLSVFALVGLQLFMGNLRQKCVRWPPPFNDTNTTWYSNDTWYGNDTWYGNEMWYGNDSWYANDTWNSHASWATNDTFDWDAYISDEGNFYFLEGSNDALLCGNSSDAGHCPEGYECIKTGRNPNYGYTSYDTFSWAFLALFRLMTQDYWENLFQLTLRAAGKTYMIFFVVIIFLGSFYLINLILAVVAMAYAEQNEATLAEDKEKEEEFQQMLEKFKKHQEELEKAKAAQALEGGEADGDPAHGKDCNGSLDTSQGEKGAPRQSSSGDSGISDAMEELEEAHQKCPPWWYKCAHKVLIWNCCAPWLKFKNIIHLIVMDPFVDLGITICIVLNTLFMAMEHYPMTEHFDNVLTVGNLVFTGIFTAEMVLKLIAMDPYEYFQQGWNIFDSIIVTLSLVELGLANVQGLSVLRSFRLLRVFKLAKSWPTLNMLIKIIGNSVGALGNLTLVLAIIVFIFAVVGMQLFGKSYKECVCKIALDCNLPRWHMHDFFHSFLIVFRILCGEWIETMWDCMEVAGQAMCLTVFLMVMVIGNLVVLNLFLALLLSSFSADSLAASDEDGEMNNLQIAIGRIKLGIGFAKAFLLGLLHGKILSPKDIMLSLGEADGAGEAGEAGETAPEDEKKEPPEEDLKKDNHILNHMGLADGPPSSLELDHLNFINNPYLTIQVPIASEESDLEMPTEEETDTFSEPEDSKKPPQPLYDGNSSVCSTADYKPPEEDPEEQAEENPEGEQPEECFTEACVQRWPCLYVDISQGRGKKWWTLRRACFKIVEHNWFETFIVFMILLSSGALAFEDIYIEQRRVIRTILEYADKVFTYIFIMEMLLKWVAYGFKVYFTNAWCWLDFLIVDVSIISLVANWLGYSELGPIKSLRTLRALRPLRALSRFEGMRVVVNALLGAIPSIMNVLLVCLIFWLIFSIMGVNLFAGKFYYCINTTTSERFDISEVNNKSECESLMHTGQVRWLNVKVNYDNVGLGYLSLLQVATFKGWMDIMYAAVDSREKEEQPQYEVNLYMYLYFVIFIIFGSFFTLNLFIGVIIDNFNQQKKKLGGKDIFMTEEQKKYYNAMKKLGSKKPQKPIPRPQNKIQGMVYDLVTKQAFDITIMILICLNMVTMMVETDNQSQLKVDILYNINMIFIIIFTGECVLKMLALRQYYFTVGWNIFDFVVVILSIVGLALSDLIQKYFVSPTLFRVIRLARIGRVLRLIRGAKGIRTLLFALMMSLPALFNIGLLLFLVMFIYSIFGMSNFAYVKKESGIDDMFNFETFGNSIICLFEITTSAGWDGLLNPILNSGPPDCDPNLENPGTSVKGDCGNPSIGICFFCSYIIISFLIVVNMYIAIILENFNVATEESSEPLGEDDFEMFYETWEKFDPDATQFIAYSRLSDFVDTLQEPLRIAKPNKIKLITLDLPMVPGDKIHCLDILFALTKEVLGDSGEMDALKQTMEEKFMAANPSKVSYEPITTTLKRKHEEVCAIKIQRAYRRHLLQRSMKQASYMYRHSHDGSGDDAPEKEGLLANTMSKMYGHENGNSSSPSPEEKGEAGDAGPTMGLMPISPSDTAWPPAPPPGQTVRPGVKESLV

Compound	IC50 (hNav1.7; [1]) [nM]	hNav1.7 potency/activity compared with wild type JzTx-V (hNav1.7)	also measured
C#CC[C@H](N)C(=O)NCCCC[C@@H]1NC(=O)[C@H](CCCNC(=N)N)NC(=O)[C@H](CCCCN)NC(=O)[C@H](CO)NC(=O)[C@H](CC(=O)O)NC(=O)[C@@H]2CSSC[C@@H]3NC(=O)[C@H](CCC(=O)O)NC(=O)[C@H](CC(C)C)NC(=O)CNC(=O)[C@H](CCC(=O)O)NC(=O)[C@H](CSSC[C@H](NC(=O)[C@H](Cc4ccc(O)cc4)NC(=O)[C@@H](N)CC#N)C(=O)N[C@@H](CCC(N)=O)C(=O)N[C@@H](CCCCN)C(=O)N[C@@H](Cc4c[nH]c5ccccc45)C(=O)N[C@@H](CCCC)C(=O)N[C@@H](Cc4c[nH]c5ccccc45)C(=O)N[C@@H]([C@@H](C)O)C(=O)N2)NC(=O)[C@H](CSSC[C@@H](C(=O)N[C@@H](CCCNC(=N)N)C(=O)N[C@@H](CCCCN)C(=O)N[C@H](C(=O)N[C@H](C(N)=O)[C@@H](C)CC)[C@@H](C)CC)NC(=O)[C@H](Cc2c[nH]c4ccccc24)NC(=O)[C@H](CC(C)C)NC(=O)[C@H](CCCCN)NC3=O)NC1=O [compound 393]	> 100		IC50 (hNav1.4): > 10000 nM
C#CC[C@H](N)C(=O)NCCCC[C@@H]1NC(=O)[C@H](CCCNC(=N)N)NC(=O)[C@H](CCCCN)NC(=O)[C@H](CO)NC(=O)[C@H](CC(=O)O)NC(=O)[C@@H]2CSSC[C@@H]3NC(=O)[C@H](CCC(=O)O)NC(=O)[C@H](CC(C)C)NC(=O)CNC(=O)[C@H](CCC(=O)O)NC(=O)[C@H](CSSC[C@H](NC(=O)[C@H](Cc4ccc(O)cc4)NC(=O)[C@@H](N)CCC)C(=O)N[C@@H](CCC(N)=O)C(=O)N[C@@H](CCCCN)C(=O)N[C@@H](Cc4c[nH]c5ccccc45)C(=O)N[C@@H](CC(C)C)C(=O)N[C@@H](Cc4c[nH]c5ccccc45)C(=O)N[C@@H]([C@@H](C)O)C(=O)N2)NC(=O)[C@H](CSSC[C@@H](C(=O)N[C@@H](CCCNC(=N)N)C(=O)N[C@@H](CCCCN)C(=O)N[C@@H](Cc2ccc(O)cc2)C(=O)N[C@H](C(N)=O)[C@@H](C)CC)NC(=O)[C@H](Cc2c[nH]c4ccccc24)NC(=O)[C@H](CC(C)C)NC(=O)[C@H](CCCCN)NC3=O)NC1=O [compound 440]	1.95		
C#CC[C@H](N)C(=O)NCCCC[C@@H]1NC(=O)[C@H](CCCNC(=N)N)NC(=O)[C@H](CCCCN)NC(=O)[C@H](CO)NC(=O)[C@H](CC(=O)O)NC(=O)[C@@H]2CSSC[C@@H]3NC(=O)[C@H](CCC(=O)O)NC(=O)[C@H](CC(C)C)NC(=O)CNC(=O)[C@H](CCC(=O)O)NC(=O)[C@H](CSSC[C@H](NC(=O)[C@H](Cc4ccc(O)cc4)NC(=O)[C@@H](N)CCC)C(=O)N[C@@H](CCC(N)=O)C(=O)N[C@@H](CCCCN)C(=O)N[C@@H](Cc4c[nH]c5ccccc45)C(=O)N[C@@H](CC(C)C)C(=O)N[C@@H](Cc4c[nH]c5ccccc45)C(=O)N[C@@H]([C@@H](C)O)C(=O)N2)NC(=O)[C@H](CSSC[C@@H](C(=O)N[C@@H](CCCNC(=N)N)C(=O)N[C@@H](CCCCN)C(=O)N[C@H](C(=O)N[C@@H](Cc2c[nH]c4ccccc24)C(N)=O)[C@@H](C)CC)NC(=O)[C@H](Cc2c[nH]c4ccccc24)NC(=O)[C@H](CC(C)C)NC(=O)[C@H](CCCCN)NC3=O)NC1=O [compound 441]	10.4		
[1-Nal7]JzTx-V(1-29) [SEQ ID NO: 30]		retained hNav1.7 activity similar to the wild type peptide	
[1-Nal24]JzTx-V(1-29) [SEQ ID NO: 43]		loses considerable activity against hNav1.7	
[Phe6,Atz(500 Da EtO-PEG*-{[Phe6,Atz13*]GpTx-1(1-34)})13]GpTx-1(1-34) [Homodimeric Conjugate No. 4]			Wash out (hNav1.7): Yes; IC50 (hNav1.7; read-out: Nav1.7 PX IC50): 19 nM
